Patent US9738634B2, “Heterocyclic amide compound and herbicide” (SYNGENTA PARTICIPATIONS AG, priority 2013, dated 2017)

What was measured:
Type in all cases: in vivo
[1] = tested on: Italian ryegrass; assay: Test Example 3: weedkilling efficacy through soil treatment; I: Italian ryegrass; details: soil treatment
Outline: (§1)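 Crop and weed responses were judged three weeks after a uniform surface spray of the water-diluted emulsion at the given g/ha rate. Seeds sat beneath about 1.5 cm of sterilized diluvial soil, and boxes stood in a greenhouse at 25 to 30° C.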

[2] = tested on: Indian mallow; assay: Test Example 3: weedkilling efficacy through soil treatment; K: Indian mallow; details: soil treatment
Outline: as §1

[3] = tested on: birds-eye speedwell; assay: Test Example 3: weedkilling efficacy through soil treatment; p: birds-eye speedwell; details: soil treatment, treatment dosage 315 g/ha
Outline: as §1

[4] = tested on: barnyard grass; assay: Test Example 3: weedkilling efficacy through soil treatment; F: barnyard grass; details: soil treatment
Outline: as §1

[5] = tested on: barnyard grass; assay: Test Example 2: weedkilling efficacy, growth period weed treatment in the submerged state; A: barnyard grass
Outline: (§2)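 Weeds treated at the 1-2 leaf stage by application of diluted emulsion onto floodwater (4 cm depth, alluvial soil) at specified g/ha. Grown in greenhouse at 25 to 30° C; herbicidal effect rated three weeks after treatment.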

[6] = tested on: rapeseed; assay: Test Example 3: soil treatment, effect on crop; g: rapeseed; details: soil treatment
Outline: as §1

[7] = tested on: transplanted rice; assay: Test Example 1: preemergent weed treatment in the submerged state, effect on crop; a: transplanted rice
Outline: (§3)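 Pots of alluvial soil were flooded to a 4 cm depth. Mixed weed seeds were sown and 2.5 leaf-stage rice seedlings transplanted. On sowing day, water-diluted emulsion was applied to the water surface (dose in g/ha). After 3 weeks at 25–30 °C, effects were rated.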

[8] = tested on: green foxtail; assay: Test Example 3: weedkilling efficacy through soil treatment; E: green foxtail; details: soil treatment
Outline: as §1

[9] = tested on: bulrush; assay: Test Example 2: weedkilling efficacy, growth period weed treatment in the submerged state; B: bulrush
Outline: as §2

[10] = tested on: barnyard grass; assay: Test Example 1: weedkilling efficacy, preemergent weed treatment in the submerged state; A: barnyard grass
Outline: as §3

[11] = tested on: chickweed; assay: Test Example 3: weedkilling efficacy through soil treatment; N: chickweed; details: soil treatment
Outline: as §1

[12] = tested on: corn; assay: Test Example 3: soil treatment, effect on crop; c: corn; details: soil treatment
Outline: as §1

[13] = tested on: directly sown rice; assay: Test Example 3: soil treatment, effect on crop; b: directly sown rice; details: soil treatment
Outline: as §1

[14] = tested on: soybean; assay: Test Example 3: soil treatment, effect on crop; d: soybean; details: soil treatment
Outline: as §1

[15] = tested on: wheat; assay: Test Example 3: soil treatment, effect on crop; e: wheat; details: soil treatment
Outline: as §1

[16] = tested on: black-grass; assay: Test Example 3: weedkilling efficacy through soil treatment; H: black-grass; details: soil treatment
Outline: as §1

[17] = tested on: wild oat; assay: Test Example 3: weedkilling efficacy through soil treatment; G: wild oat; details: soil treatment
Outline: as §1

[18] = tested on: catchweed; assay: Test Example 3: weedkilling efficacy through soil treatment; O: catchweed; details: soil treatment
Outline: as §1

[19] = tested on: redroot pigweed; assay: Test Example 3: weedkilling efficacy through soil treatment; L: redroot pigweed; details: soil treatment
Outline: as §1

[20] = tested on: crabgrass; assay: Test Example 3: weedkilling efficacy through soil treatment; D: crabgrass; details: soil treatment
Outline: as §1

[21] = tested on: oval-leafed pondweed; assay: Test Example 2: weedkilling efficacy, growth period weed treatment in the submerged state; C: oval-leafed pondweed
Outline: as §2

[22] = tested on: common wind-grass; assay: Test Example 3: weedkilling efficacy through soil treatment; J: common wind-grass; details: soil treatment
Outline: as §1

[23] = tested on: beet; assay: Test Example 3: soil treatment, effect on crop; f: beet; details: soil treatment
Outline: as §1

[24] = tested on: bulrush; assay: Test Example 1: weedkilling efficacy, preemergent weed treatment in the submerged state; B: bulrush
Outline: as §3

[25] = tested on: oval-leafed pondweed; assay: Test Example 1: weedkilling efficacy, preemergent weed treatment in the submerged state; C: oval-leafed pondweed
Outline: as §3

[26] = tested on: fig-leafed goosefoot; assay: Test Example 3: weedkilling efficacy through soil treatment; M: fig-leafed goosefoot; details: soil treatment, treatment dosage 320 g/ha
Outline: as §1

COc1cc(Cl)nc(NC(=O)C(C)(C)N2COCN(c3ccccc3)C2=O)c1 [A-2-33]
I: Italian ryegrass, weedkilling efficacy grade ([1]; treatment dosage 315 g/ha): 5 (weed kill ratio 90% or more, (practically complete withering)) | K: Indian mallow, weedkilling efficacy grade ([2]; treatment dosage 315 g/ha): 0 (weed kill ratio 5% or less (practically no effect)) | P: birds-eye speedwell, weedkilling efficacy grade [3]: 5 (weed kill ratio 90% or more, (practically complete withering)) | F: barnyard grass, weedkilling efficacy grade ([4]; treatment dosage 315 g/ha): 4 (weed kill ratio 70% or more, less than 90%) | A (barnyard grass) weedkilling efficacy grade ([5]; treatment dosage 315 g/ha): 5 (weed kill ratio 90% or more, (practically complete withering)) | g: rapeseed, effect on crop grade ([6]; treatment dosage 315 g/ha): 3 (weed kill ratio 40% or more, less than 70%) | a: transplanted rice, effect on crop grade ([7]; treatment dosage 315 g/ha): 4 (weed kill ratio 70% or more, less than 90%) | E: green foxtail, weedkilling efficacy grade ([8]; treatment dosage 315 g/ha): 5 (weed kill ratio 90% or more, (practically complete withering)) | B (bulrush) weedkilling efficacy grade ([9]; treatment dosage 315 g/ha): 5 (weed kill ratio 90% or more, (practically complete withering)) | A: barnyard grass, weed kill grade ([10]; treatment dosage 315 g/ha): 5 (weed kill ratio 90% or more, (practically complete withering)) | N: chickweed, weedkilling efficacy grade ([11]; treatment dosage 315 g/ha): 4 (weed kill ratio 70% or more, less than 90%) | c: corn, effect on crop grade ([12]; treatment dosage 315 g/ha): 0 (weed kill ratio 5% or less (practically no effect)) | b: directly sown rice, effect on crop grade ([13]; treatment dosage 315 g/ha): 3 (weed kill ratio 40% or more, less than 70%) | d: soybean, effect on crop grade ([14]; treatment dosage 315 g/ha): 0 (weed kill ratio 5% or less (practically no effect)) | e: wheat, effect on crop grade ([15]; treatment dosage 315 g/ha): 0 (weed kill ratio 5% or less (practically no effect)) | H: black-grass, weedkilling efficacy grade ([16]; treatment dosage 315 g/ha): 5 (weed kill ratio 90% or more, (practically complete withering)) | G: wild oat, weedkilling efficacy grade ([17]; treatment dosage 315 g/ha): 4 (weed kill ratio 70% or more, less than 90%) | O: catchweed, weedkilling efficacy grade ([18]; treatment dosage 315 g/ha): 5 (weed kill ratio 90% or more, (practically complete withering)) | L: redroot pigweed, weedkilling efficacy grade ([19]; treatment dosage 315 g/ha): 2 (weed kill ratio 20% or more, less than 40%) | D: crabgrass, weedkilling efficacy grade ([20]; treatment dosage 315 g/ha): 5 (weed kill ratio 90% or more, (practically complete withering)) | C (oval-leafed pondweed) weedkilling efficacy grade ([21]; treatment dosage 315 g/ha): 5 (weed kill ratio 90% or more, (practically complete withering)) | J: common wind-grass, weedkilling efficacy grade ([22]; treatment dosage 315 g/ha): 5 (weed kill ratio 90% or more, (practically complete withering)) | f: beet, effect on crop grade ([23]; treatment dosage 315 g/ha): 1 (weed kill ratio 5% or more, less than 20%) | B: bulrush, weed kill grade ([24]; treatment dosage 315 g/ha): 5 (weed kill ratio 90% or more, (practically complete withering)) | C: oval-leafed pondweed, weed kill grade ([25]; treatment dosage 315 g/ha): 5 (weed kill ratio 90% or more, (practically complete withering))

CC(C)(C(=O)Nc1cc(Cl)cc(Oc2ccccc2)n1)N1COCN(c2ccccc2)C1=O [A-2-35]
I: Italian ryegrass, weedkilling efficacy grade ([1]; treatment dosage 320 g/ha): 3 (weed kill ratio 40% or more, less than 70%) | K: Indian mallow, weedkilling efficacy grade ([2]; treatment dosage 320 g/ha): 0 (weed kill ratio 5% or less (practically no effect)) | F: barnyard grass, weedkilling efficacy grade ([4]; treatment dosage 320 g/ha): 3 (weed kill ratio 40% or more, less than 70%) | A (barnyard grass) weedkilling efficacy grade ([5]; treatment dosage 320 g/ha): 4 (weed kill ratio 70% or more, less than 90%) | g: rapeseed, effect on crop grade ([6]; treatment dosage 320 g/ha): 1 (weed kill ratio 5% or more, less than 20%) | a: transplanted rice, effect on crop grade ([7]; treatment dosage 320 g/ha): 1 (weed kill ratio 5% or more, less than 20%) | E: green foxtail, weedkilling efficacy grade ([8]; treatment dosage 320 g/ha): 3 (weed kill ratio 40% or more, less than 70%) | B (bulrush) weedkilling efficacy grade ([9]; treatment dosage 320 g/ha): 4 (weed kill ratio 70% or more, less than 90%) | A: barnyard grass, weed kill grade ([10]; treatment dosage 320 g/ha): 5 (weed kill ratio 90% or more, (practically complete withering)) | N: chickweed, weedkilling efficacy grade ([11]; treatment dosage 320 g/ha): 0 (weed kill ratio 5% or less (practically no effect)) | c: corn, effect on crop grade ([12]; treatment dosage 320 g/ha): 0 (weed kill ratio 5% or less (practically no effect)) | b: directly sown rice, effect on crop grade ([13]; treatment dosage 320 g/ha): 0 (weed kill ratio 5% or less (practically no effect)) | M: fig-leafed goosefoot, weedkilling efficacy grade [26]: 0 (weed kill ratio 5% or less (practically no effect)) | d: soybean, effect on crop grade ([14]; treatment dosage 320 g/ha): 0 (weed kill ratio 5% or less (practically no effect)) | e: wheat, effect on crop grade ([15]; treatment dosage 320 g/ha): 0 (weed kill ratio 5% or less (practically no effect)) | H: black-grass, weedkilling efficacy grade ([16]; treatment dosage 320 g/ha): 3 (weed kill ratio 40% or more, less than 70%) | G: wild oat, weedkilling efficacy grade ([17]; treatment dosage 320 g/ha): 0 (weed kill ratio 5% or less (practically no effect)) | O: catchweed, weedkilling efficacy grade ([18]; treatment dosage 320 g/ha): 0 (weed kill ratio 5% or less (practically no effect)) | L: redroot pigweed, weedkilling efficacy grade ([19]; treatment dosage 320 g/ha): 0 (weed kill ratio 5% or less (practically no effect)) | D: crabgrass, weedkilling efficacy grade ([20]; treatment dosage 320 g/ha): 4 (weed kill ratio 70% or more, less than 90%) | C (oval-leafed pondweed) weedkilling efficacy grade ([21]; treatment dosage 320 g/ha): 4 (weed kill ratio 70% or more, less than 90%) | J: common wind-grass, weedkilling efficacy grade ([22]; treatment dosage 320 g/ha): 4 (weed kill ratio 70% or more, less than 90%) | f: beet, effect on crop grade ([23]; treatment dosage 320 g/ha): 0 (weed kill ratio 5% or less (practically no effect)) | B: bulrush, weed kill grade ([24]; treatment dosage 320 g/ha): 5 (weed kill ratio 90% or more, (practically complete withering)) | C: oval-leafed pondweed, weed kill grade ([25]; treatment dosage 320 g/ha): 5 (weed kill ratio 90% or more, (practically complete withering))

CC(C)(C(=O)Nc1cccc(CF)n1)N1COCN(c2ccccc2)C1=O [A-2-39]
I: Italian ryegrass, weedkilling efficacy grade ([1]; treatment dosage 315 g/ha): 5 (weed kill ratio 90% or more, (practically complete withering)) | K: Indian mallow, weedkilling efficacy grade ([2]; treatment dosage 315 g/ha): 0 (weed kill ratio 5% or less (practically no effect)) | P: birds-eye speedwell, weedkilling efficacy grade [3]: 5 (weed kill ratio 90% or more, (practically complete withering)) | F: barnyard grass, weedkilling efficacy grade ([4]; treatment dosage 315 g/ha): 5 (weed kill ratio 90% or more, (practically complete withering)) | A (barnyard grass) weedkilling efficacy grade ([5]; treatment dosage 315 g/ha): 4 (weed kill ratio 70% or more, less than 90%) | g: rapeseed, effect on crop grade ([6]; treatment dosage 315 g/ha): 2 (weed kill ratio 20% or more, less than 40%) | a: transplanted rice, effect on crop grade ([7]; treatment dosage 315 g/ha): 1 (weed kill ratio 5% or more, less than 20%) | E: green foxtail, weedkilling efficacy grade ([8]; treatment dosage 315 g/ha): 5 (weed kill ratio 90% or more, (practically complete withering)) | B (bulrush) weedkilling efficacy grade ([9]; treatment dosage 315 g/ha): 5 (weed kill ratio 90% or more, (practically complete withering)) | A: barnyard grass, weed kill grade ([10]; treatment dosage 315 g/ha): 5 (weed kill ratio 90% or more, (practically complete withering)) | N: chickweed, weedkilling efficacy grade ([11]; treatment dosage 315 g/ha): 2 (weed kill ratio 20% or more, less than 40%) | c: corn, effect on crop grade ([12]; treatment dosage 315 g/ha): 0 (weed kill ratio 5% or less (practically no effect)) | b: directly sown rice, effect on crop grade ([13]; treatment dosage 315 g/ha): 4 (weed kill ratio 70% or more, less than 90%) | d: soybean, effect on crop grade ([14]; treatment dosage 315 g/ha): 0 (weed kill ratio 5% or less (practically no effect)) | e: wheat, effect on crop grade ([15]; treatment dosage 315 g/ha): 1 (weed kill ratio 5% or more, less than 20%) | H: black-grass, weedkilling efficacy grade ([16]; treatment dosage 315 g/ha): 5 (weed kill ratio 90% or more, (practically complete withering)) | G: wild oat, weedkilling efficacy grade ([17]; treatment dosage 315 g/ha): 4 (weed kill ratio 70% or more, less than 90%) | O: catchweed, weedkilling efficacy grade ([18]; treatment dosage 315 g/ha): 5 (weed kill ratio 90% or more, (practically complete withering)) | L: redroot pigweed, weedkilling efficacy grade ([19]; treatment dosage 315 g/ha): 0 (weed kill ratio 5% or less (practically no effect)) | D: crabgrass, weedkilling efficacy grade ([20]; treatment dosage 315 g/ha): 5 (weed kill ratio 90% or more, (practically complete withering)) | C (oval-leafed pondweed) weedkilling efficacy grade ([21]; treatment dosage 315 g/ha): 4 (weed kill ratio 70% or more, less than 90%) | J: common wind-grass, weedkilling efficacy grade ([22]; treatment dosage 315 g/ha): 5 (weed kill ratio 90% or more, (practically complete withering)) | f: beet, effect on crop grade ([23]; treatment dosage 315 g/ha): 3 (weed kill ratio 40% or more, less than 70%) | B: bulrush, weed kill grade ([24]; treatment dosage 315 g/ha): 5 (weed kill ratio 90% or more, (practically complete withering)) | C: oval-leafed pondweed, weed kill grade ([25]; treatment dosage 315 g/ha): 5 (weed kill ratio 90% or more, (practically complete withering))
